PMC12040169 (PLOS Biology, 2025)

Test: in vitro
Conditions: human, hela cells, % viability

SMILES	viability at 28.5 h, 10 µM
COC(=O)c1c(NC(=S)Nc2cccc(S(=O)(=O)N3CCOCC3)c2)sc2c1CCC2 [CBK267054]	93.8%
Cc1cc(=O)oc2cc(NC(=S)NNC(=O)C(C)Sc3nc4ccccc4s3)ccc12 (stereo not drawn) [CBK267056]	102%
COC(=O)c1ccc(N/C(C)=C/C(=O)c2ccc(C)o2)cc1 [CBK267057]	115%
COc1ccc(NC(=O)Nc2ccccc2C(N)=O)cc1OC [CBK267061]	94.1%
O=C(O)Cc1ccc(NC(=S)Nc2cccc(Cl)c2Cl)cc1 [CBK267064]	107%
O=C(CC(NCCO)C(=O)O)Nc1cccc(C(F)(F)F)c1 (stereo not drawn) [CBK267065]	109%
Cn1cc(I)c(C(=O)NNC(=S)Nc2ccc(S(N)(=O)=O)cc2)n1 [CBK267066]	106%
O=[N+]([O-])c1ccc(S(=O)(=O)CC(CN2CCCCC2)N2CCCCC2)cc1 (stereo not drawn) [CBK267070]	100%
COc1cc(C=O)ccc1Oc1nnnn1-c1ccc(C(=O)O)cc1 [CBK267071]	95.5%
CC(NC(=S)Nc1ccc(S(N)(=O)=O)cc1)c1ccncc1 (stereo not drawn) [CBK267073]	111%
CCn1c2ccccc2n2c(SC(C)C(=O)O)nnc12 (stereo not drawn) [CBK267079]	103%
NS(=O)(=O)c1ccc(NC(=S)Nc2nn(Cc3ccc(Cl)c(Cl)c3)cc2Br)cc1 [CBK267082]	94.4%
Cc1cc(NC(=O)C(=O)NC(C)c2ccccc2)ccc1Br (stereo not drawn) [CBK267084]	96.3%
O=S(=O)(CC(CN1CCCCC1)N1CCCCC1)c1ccc2ccccc2c1 (stereo not drawn) [CBK267087]	100%
CCc1c(C)sc(NC(=S)Nc2cnccn2)c1C(=O)OC [CBK267088]	96.5%
CC(=O)Nc1cccc(NC(=S)Nc2ccc(S(N)(=O)=O)cc2)c1 [CBK267091]	98.4%
COc1cc([N+](=O)[O-])ccc1NC(=O)NCc1ccc(C(=O)O)cc1 [CBK267092]	87.1%
O=C(Nc1ccc(N2CCN(Cc3ccccc3)CC2)cc1)c1cncc(Br)c1 [CBK267093]	85%
COC(=O)c1sc2cc(NC(=S)NCc3ccc(S(N)(=O)=O)cc3)ccc2c1Cl [CBK267094]	81.7%
COc1ccc(C)cc1NC(=O)NC1CCN(Cc2ccccc2)CC1 [CBK267095]	99.2%
O=C(c1ccco1)N1CCN(C(=S)Nc2ccc(S(=O)(=O)Nc3ncccn3)cc2)CC1 [CBK267096]	104%

SMILES	viability at 28.5 h, 10 µM
N#CCCN(CCC#N)C(=O)CN1C(=O)c2ccccc2C1=O [CBK267100]	89%
CCC(C)c1ccc(NC(=S)NCCn2cc(Cl)cn2)cc1 (stereo not drawn) [CBK267101]	90.7%
NS(=O)(=O)c1ccc(NC(=S)NNC(=S)Nc2ccc(F)cc2F)cc1 [CBK267102]	93.3%
O=C(CCc1ccc(O)c(O)c1)NNC(=S)Nc1ccccc1C(F)(F)F [CBK267104]	94.2%
Cc1ccc(Cl)cc1NC(=O)CC(C(=O)O)N(C)C (stereo not drawn) [CBK267105]	112%
COC(=O)c1ccc(NC(=O)COn2nnc3ccc([N+](=O)[O-])cc32)cc1 [CBK267106]	94.3%
S=C(Nc1cccc(Cl)c1Cl)Nc1nn(Cc2ccc(Cl)c(Cl)c2)cc1Cl [CBK267109]	109%
COC(=O)c1c(N=C(S)Nc2ccc(CC(=O)O)cc2)sc(C)c1C [CBK267111]	96.4%
Cc1c(Cl)c(C(F)(F)F)nn1CCCNC(=S)Nc1ccc(S(N)(=O)=O)cc1 [CBK267113]	100%
CCc1cc(C(=O)OC)c(NC(=S)Nc2nc3cc(C)c(C)cc3s2)s1 [CBK267116]	81%
CN(CC(=O)N1CCN(Cc2ccccc2)CC1)S(=O)(=O)c1ccc2ccccc2c1 [CBK267117]	90.1%
O=C(O)COc1ccc(-c2nnn(CC(=O)O)n2)cc1 [CBK267124]	87.6%
COC(=O)c1c(N=C(S)NN2CCN(C)CC2)sc2c1CCC(C)C2 (stereo not drawn) [CBK267125]	83.9%
Fc1ccc(-c2n[nH]c(=S)n2CCCN2CCOCC2)cc1 [CBK267127]	100%
CCCC(=O)Nc1ccc2c(c1)nc1n2CCN(Cc2ccccc2)C1 [CBK267129]	105%
S=c1[nH]nc(CSc2nc3ccccc3[nH]2)n1-c1ccccc1 [CBK267133]	87.3%
CC1=NN(C(=O)CSCc2ccccc2)C(O)(c2ccc(Cl)cc2)C1 (stereo not drawn) [CBK267136]	92.7%
O=C(O)c1ccc(-c2ccc(/C=C/c3[nH]c(=O)[nH]c(=O)c3[N+](=O)[O-])o2)cc1Cl [CBK267139]	94.9%
O=C(CCCN1C(=O)c2ccccc2C1=O)Oc1ccc(-c2ccccc2)cc1 [CBK267144]	98.1%
O=C(CSc1nc[nH]n1)Nc1ccc(-c2nc3ccccc3s2)cc1 [CBK267146]	81.9%
O=C(Cn1c(C(F)(F)F)nc2ccccc21)NCCN1CCCC1 [CBK267150]	97.8%

SMILES	viability at 28.5 h, 10 µM
Cn1c(SCC(=O)N2CCN(Cc3ccccc3)CC2)nnc1-c1cccc([N+](=O)[O-])c1 [CBK267154]	90.6%
CN(C)S(=O)(=O)c1ccc(NC(=O)CCC(=O)O)cc1 [CBK267156]	91.6%
S=C(NCCc1c[nH]c2ccccc12)NCc1ccco1 [CBK267157]	92.7%
Cc1cccc(C)c1NC(=O)CC1Sc2ccccc2NC1=O (stereo not drawn) [CBK267160]	97%
COc1ccc(Cl)cc1NC(=S)NNC(=O)c1cccnc1 [CBK267161]	92.7%
c1ccc(Cc2nn3c(COc4ccccc4)nnc3s2)cc1 [CBK267163]	88%
c1csc(-c2csc3ncnc(NCCCN4CCOCC4)c23)c1 [CBK267166]	98.1%
Cc1ccc(C(=O)O)cc1S(=O)(=O)N(C)CCO [CBK267167]	94.1%
CCN1C(=O)c2cccc3c(S(=O)(=O)N4CCCC4C(=O)O)ccc1c23 (stereo not drawn) [CBK267169]	109%
Cc1ccc(C(=O)O)cc1S(=O)(=O)NCCCO [CBK267171]	96.9%
COC(=O)COc1ccc(S(=O)(=O)NCc2ccc3c(c2)OCO3)cc1C [CBK267172]	90.3%
CCc1ccc(OCC(=O)NC(=S)Nc2cccc3nsnc23)cc1 [CBK267173]	100%
Nc1ncnc2[nH]c(SCc3nc4ccc(I)cc4c(=O)n3-c3ccccc3)nc12 [CBK267174]	96.2%
COc1ccc(S(=O)(=O)Nc2ccncc2)cc1N(C)S(=O)(=O)c1ccccc1 [CBK267179]	103%
O=C(COc1cccc(Cl)c1)NNC(=S)Nc1ccccc1 [CBK267180]	88.4%
O=C(Nc1ccncc1)c1ccc(CNS(=O)(=O)c2cccc(C(F)(F)F)c2)cc1 [CBK267181]	88.5%
Cc1cc(-c2nn3c(-c4ccccc4)nnc3s2)c2ccccc2n1 [CBK267187]	101%
CN(C)c1nc(NCc2ccccc2)nc(SCC(=O)Nc2ccccc2Cl)n1 [CBK267190]	93.3%
O=C(CSc1nnnn1-c1ccccc1)Nc1nsc(-c2ccccc2)n1 [CBK267192]	108%
Cc1cc(C)c(C)c(S(=O)(=O)NCc2ccc(C(=O)Nc3ccncc3)cc2)c1C [CBK267193]	90.5%
Nc1nonc1C(=O)NCCNCc1ccc(Cl)cc1 [CBK267194]	101%
